Test results reported in article PMC8815882, “Screening the pandemic response box identified benzimidazole carbamates, Olorofim and ravuconazole as promising drug candidates for the treatment of eumycetoma” (PLoS Neglected Tropical Diseases, 2022).
Read-outs that look alike come from different tables or passages of the source.

Test system: M. mycetomatis genome strain MM55
Experiment: CLSI M38-A2 based in vitro susceptibility screening (XTT or resazurin), growth at fixed concentration
Format: cell-based, Madurella mycetomatis
Details: Madurella mycetomatis; for Percent fungal survival at 100 µM: read-out: Percentage survival at 100um, 100 uM A (second replicate column)
[1] = mean of replicates, MM55, read-out: Percentage survival at 25um, 25 uM mean
[2] = replicate A, MM55, read-out: Percentage survival at 25um, 25 um A
[3] = replicate B, MM55, read-out: Percentage survival at 25um, 25 uM B
[4] = replicate C, MM55, read-out: Percentage survival at 25um, 25 uM C
[5] = mean of replicates, MM55, read-out: Percentage survival at 100um, 100 uM mean
[6] = replicate 1, MM55, read-out: Percentage survival at 100um, 100 uM A
[7] = replicate 2, MM55, read-out: Percentage survival at 100um, 100 uM A
[8] = replicate 3, MM55, read-out: Percentage survival at 100um, 100 uM A
[9] = mean of three, M. mycetomatis MM55, read-out: Percentage survival at 25um, 25 uM mean
[10] = replicate A, M. mycetomatis MM55, read-out: Percentage survival at 25um, 25 um A
[11] = replicate B, M. mycetomatis MM55, read-out: Percentage survival at 25um, 25 uM B
[12] = replicate C, M. mycetomatis MM55, read-out: Percentage survival at 25um, 25 uM C
[13] = mean of three, M. mycetomatis MM55, read-out: Percentage survival at 100um, 100 uM mean
[14] = replicate 1, M. mycetomatis MM55, read-out: Percentage survival at 100um, 100 uM A (first replicate column)
[15] = replicate 2, M. mycetomatis MM55
[16] = replicate 3, M. mycetomatis MM55, read-out: Percentage survival at 100um, 100 uM A (third replicate column)
[17] = mean of replicates, read-out: Percentage survival at 25um, 25 uM mean
[18] = replicate A, read-out: Percentage survival at 25um, 25 um A
[19] = replicate B, read-out: Percentage survival at 25um, 25 uM B
[20] = replicate C, read-out: Percentage survival at 25um, 25 uM C
[21] = mean of replicates, read-out: Percentage survival at 100um, 100 uM mean
[22] = replicate 1, read-out: Percentage survival at 100um, 100 uM A
[23] = replicate 2, read-out: Percentage survival at 100um, 100 uM A
[24] = replicate 3, read-out: Percentage survival at 100um, 100 uM A

| Structure (SMILES) | activity at 25 µM [1] | activity at 25 µM [2] | activity at 25 µM [3] | activity at 25 µM [4] | activity at 100 µM [5] | activity at 100 µM [6] | activity at 100 µM [7] | activity at 100 µM [8] | activity at 25 µM [9] | activity at 25 µM [10] | activity at 25 µM [11] | activity at 25 µM [12] | activity at 100 µM [13] | activity at 100 µM [14] | Percent fungal survival at 100 µM [15] | activity at 25 µM [17] | activity at 25 µM [18] | activity at 25 µM [19] | activity at 25 µM [20] | activity at 100 µM [21] | further results |
| --- | --- | --- | --- | --- | --- | --- | --- | --- | --- | --- | --- | --- | --- | --- | --- | --- | --- | --- | --- | --- | --- |
| COc1ccc(CNC(=O)C2CCN([C@H](C)c3cccc4ccccc34)CC2)cc1 [MMV1634397] | 45.7% | 62.4% | 66.9% | 7.76% | 4.13% | 3.82% | -0.868% | 9.43% |  |  |  |  |  |  |  |  |  |  |  |  |  |
| NC(=S)N/N=C/c1ncccc1N [MMV1580496] | 67.8% | 65.1% | 79% | 59.3% | 44.6% | 65.1% | 56.6% | 12% |  |  |  |  |  |  |  |  |  |  |  |  |  |
| NCCCc1ccccc1C(=O)Nc1ncc([N+](=O)O)s1 [MMV1579786] |  |  |  |  |  |  |  |  | 82.7% | 85.5% | 82.6% | 80.1% | 76.6% | 71.4% | 83.2% |  |  |  |  |  | activity at 100 µM [16]: 75.1% |
| COc1ccc(C)cc1NC(=O)c1ccc(S(=O)(=O)N2CCCCC2)cc1 [MMV1578579] |  |  |  |  |  |  |  |  | 72.2% | 96.4% | 63% | 57.3% | 71.4% | 69.7% | 77.1% |  |  |  |  |  | activity at 100 µM [16]: 67.5% |
| c1ccc(Cn2c(-c3ccccn3)nc3ccccc32)cc1 [MMV1578886] |  |  |  |  |  |  |  |  |  |  |  |  |  |  |  | 60.6% | 64.1% | 69.2% | 48.7% | 7.34% | activity at 100 µM [22]: 12%; activity at 100 µM [23]: 5.19%; activity at 100 µM [24]: 4.84% |
| O=C(O)c1ccc(-c2ccc(O[C@H]3O[C@H](CO)[C@@H](O)[C@H](O)[C@@H]3O)cc2)cc1 [MMV1633970] |  |  |  |  |  |  |  |  |  |  |  |  |  |  |  | 80.8% | 83.4% | 84.3% | 74.7% | 73.9% | activity at 100 µM [22]: 68.9%; activity at 100 µM [23]: 82.1%; activity at 100 µM [24]: 70.6% |
| O=S(=O)(Nc1ccccc1)c1ccc(NC(=S)Nc2ccccc2)cc1 [MMV1578562] |  |  |  |  |  |  |  |  |  |  |  |  |  |  |  | 90% | 93.2% | 90.8% | 86.1% | 86% | activity at 100 µM [22]: 96.1%; activity at 100 µM [23]: 79.6%; activity at 100 µM [24]: 82.2% |
| O=C(Nc1ccccc1C(=O)O)c1cccc(Oc2ccccc2)c1 [MMV1579784] |  |  |  |  |  |  |  |  | 90.7% | 75.3% | 85.5% | 111% | 90.8% | 88.1% | 112% |  |  |  |  |  | activity at 100 µM [16]: 72.2% |
| O=C1C=C(c2ccccc2)S(=O)(=O)c2ccccc21 [MMV1006203] |  |  |  |  |  |  |  |  |  |  |  |  |  |  |  | 65% | 59.6% | 126% | 9.78% | 26.1% | activity at 100 µM (replicate 1, read-out: Percentage survival at 100um, 100 uM A (first replicate column)): 63.3%; Percent fungal survival at 100 µM (replicate 2): 4.04%; activity at 100 µM (replicate 3, read-out: Percentage survival at 100um, 100 uM A (third replicate column)): 10.9% |
| CC(C)(C)NC(=O)[C@@H]1CN(Cc2cnc3occc3c2)CCN1C[C@@H](O)C[C@@H](Cc1ccccc1)C(=O)N[C@H]1c2ccccc2C[C@H]1O [MMV1782353] | 97.1% | 103% | 101% | 87.6% | 86.3% | 97% | 84.7% | 77.2% |  |  |  |  |  |  |  |  |  |  |  |  |  |
